Test [1] has as its target T1, Sts-2PGM (Mus musculus, UniProt Q3V3E1).
T1 sequence (Q3V3E1 354-624): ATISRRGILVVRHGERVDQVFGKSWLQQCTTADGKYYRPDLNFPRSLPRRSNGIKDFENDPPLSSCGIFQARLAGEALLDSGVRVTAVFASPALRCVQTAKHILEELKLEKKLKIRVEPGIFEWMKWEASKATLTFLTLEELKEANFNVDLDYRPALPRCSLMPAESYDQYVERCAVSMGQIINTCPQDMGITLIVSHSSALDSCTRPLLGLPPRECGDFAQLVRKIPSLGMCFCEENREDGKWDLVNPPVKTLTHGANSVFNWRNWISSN
Description: biochemical.

The next test deals with T2, Sts-2PGM(S552A/S582Y) (Mus musculus, UniProt Q3V3E1, S552A/S582Y).
T2 sequence (Q3V3E1 354-624 S552A/S582Y): T1 sequence (Q3V3E1 354-624) with S199A, S229Y
Description: pNPP hydrolysis by Sts-2PGM. Type of test: biochemical. The conditions noted are these: substrate pNPP.

The target of a further test is Sts-1PGM (Mus musculus, UniProt Q8BGG7). Description: pNPP hydrolysis by Sts-1PGM. As to conditions: substrate pNPP. Type of test: biochemical.
The target in another test is T3, Sts-2PGM(A446S/S552A) (Mus musculus, UniProt Q3V3E1, A446S/S552A).
T3 sequence (Q3V3E1 354-624 A446S/S552A): T1 sequence (Q3V3E1 354-624) with A93S, S199A
The test can be described thus: pNPP hydrolysis by Sts-2PGM. Type of test: biochemical. As to conditions: substrate pNPP, pH 7.5, relative to Sts-2PGM.

Test [2] addresses T1, Sts-2PGM. Description: pNPP hydrolysis by wild-type Sts-2PGM. The conditions noted are these: substrate pNPP, Sts-2PGM wild-type. The format is biochemical.
The target of the next test is T4, Sts-2PGM(E481V) (Mus musculus, UniProt Q3V3E1, E481V).
T4 sequence (Q3V3E1 354-624 E481V): T1 sequence (Q3V3E1 354-624) with E128V
The test can be described thus: pNPP hydrolysis by Sts-2PGM. The format is biochemical. The conditions noted are these: substrate pNPP.

SMILES strings stand for the structures. Residue numbers refer to the chain shown, from its start.

Here are results for four compounds from publication PMC2880635 (Biochemistry, 2009).

Sts-1PGM, sequence (Q8BGG7 369-638 limits assumed): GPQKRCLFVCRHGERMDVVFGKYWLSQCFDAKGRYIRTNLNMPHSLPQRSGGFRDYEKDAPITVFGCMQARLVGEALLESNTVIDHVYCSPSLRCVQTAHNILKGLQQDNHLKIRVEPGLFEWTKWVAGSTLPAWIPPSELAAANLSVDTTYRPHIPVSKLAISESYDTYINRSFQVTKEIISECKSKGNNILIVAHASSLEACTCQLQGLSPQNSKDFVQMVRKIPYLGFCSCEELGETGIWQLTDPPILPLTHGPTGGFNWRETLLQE

For `[O]=[W](=[O])([OH])[OH]` [tungstate, sodium tungstate], at Sts-2PGM [1], the IC50 was 0.82 ± 0.1 mM and affinity was put at a Ki of 0.54 ± 0.07 mM.
On to `O=P(O)(O)O` [phosphate], for which, at Sts-2PGM [1], the IC50 was found to be 52 ± 6.2 mM and the Ki is 35.1 ± 4.1 mM.
Take `[O]=[V]([OH])([OH])[OH]` [vanadate, sodium vanadate]: at Sts-2PGM [1], the IC50 is 5.3 ± 3.3 mM and the Ki was found to be 3.55 ± 2.3 mM.
Take `O=[N+]([O-])c1ccc(OP(=O)(O)O)cc1` [pNPP, p-nitrophenyl phosphate]: the Km on Sts-2PGM(S552A/S582Y) (pH 5.0, 37 °C) was 600 µM. Further, the kcat on Sts-2PGM(S552A/S582Y) (pH 5.0, 37 °C) came out at 2.9 s⁻¹; at Sts-1PGM (pH 5.0, 37 °C), 63.4 s⁻¹; at Sts-1PGM (pH 7.5, 37 °C) it was 70 s⁻¹; at Sts-2PGM [2] (pH 5.0, 37 °C), 0.3 s⁻¹. Moreover, the relative activity is 312% at Sts-2PGM(S552A/S582Y) (pH 5.0, relative to Sts-2PGM); 210000% at Sts-1PGM (pH 5.0, relative to Sts-2PGM); 9400% on Sts-1PGM (pH 7.5, relative to Sts-2PGM); 28% on Sts-2PGM(A446S/S552A); 13.0% on Sts-2PGM [2] (pH 5.0, relative to Sts-2PGM); 1% on Sts-2PGM [2] (pH 7.5 (reference)). The relative activity at Sts-2PGM(E481V) (pH 5.0, relative to Sts-2PGM) came out at 207%; at Sts-2PGM(E481V) (pH 7.5, relative to Sts-2PGM), 10%.
